The values below come from ChEMBL document CHEMBL5465560, “Selectivity Literature for EUbOPEN Chemogenomic Library” (2024).

A value given as a limit tells only on which side of the number the result lay.

Assay [1] addresses Tyrosine-protein kinase receptor UFO (Homo sapiens) (UniProt P30530). Briefly: Selectivity interaction (ProQinase) EUB0000171b AXL.
For assay [2], the system named is Epidermal growth factor receptor (Homo sapiens), P00533 [UNDEFINED MUTATION]. Briefly: Selectivity interaction (ProQinase) EUB0000171b EGFR. Conditions: at 5 µM.
Assay [3] deals with Tyrosine-protein kinase ABL1 (Homo sapiens), P00519 [F317L]. Conditions: at 10 µM.
The target of assay [4] is Phosphatidylinositol 3-kinase catalytic subunit type 3 (Homo sapiens, UniProt Q8NEB9). In words: Selectivity interaction (KinomeScan (DiscoverX)) EUB0001049a PIK3C3. Conditions: at 1 µM.
Assay [5] concerns the target T1, Receptor-interacting serine/threonine-protein kinase 4 (Homo sapiens) (UniProt P57078).
T1 sequence (whole entry): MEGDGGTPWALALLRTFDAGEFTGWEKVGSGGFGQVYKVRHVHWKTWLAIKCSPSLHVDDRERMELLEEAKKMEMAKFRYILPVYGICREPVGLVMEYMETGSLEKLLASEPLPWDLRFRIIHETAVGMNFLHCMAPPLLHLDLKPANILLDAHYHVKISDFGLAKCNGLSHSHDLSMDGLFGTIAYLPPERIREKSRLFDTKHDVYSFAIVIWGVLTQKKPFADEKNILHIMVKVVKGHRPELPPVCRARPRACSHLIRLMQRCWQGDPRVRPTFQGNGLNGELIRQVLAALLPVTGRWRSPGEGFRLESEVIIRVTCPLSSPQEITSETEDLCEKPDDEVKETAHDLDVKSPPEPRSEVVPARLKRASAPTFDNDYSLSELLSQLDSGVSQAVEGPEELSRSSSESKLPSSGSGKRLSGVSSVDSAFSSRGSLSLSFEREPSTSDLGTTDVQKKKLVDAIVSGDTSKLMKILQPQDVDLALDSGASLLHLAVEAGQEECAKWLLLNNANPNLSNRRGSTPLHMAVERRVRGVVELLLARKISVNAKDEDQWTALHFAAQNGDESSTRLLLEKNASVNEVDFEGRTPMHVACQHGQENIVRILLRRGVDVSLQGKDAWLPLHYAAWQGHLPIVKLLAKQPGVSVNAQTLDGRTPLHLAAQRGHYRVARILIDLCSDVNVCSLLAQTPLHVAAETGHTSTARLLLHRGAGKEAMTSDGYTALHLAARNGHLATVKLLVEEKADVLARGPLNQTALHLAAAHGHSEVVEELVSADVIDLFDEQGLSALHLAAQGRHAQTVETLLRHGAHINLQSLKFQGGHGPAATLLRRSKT
In words: Selectivity interaction (KinomeScan (DiscoverX)) EUB0001049a RIPK4. Conditions: at 1 µM.

In assay [6] the target is Cyclin-dependent kinase 17 (Homo sapiens) (UniProt Q00537). In words: Selectivity interaction (KinomeScan (DiscoverX)) EUB0000655a CDK17. The note with it: at 10 µM.
Assay [7] deals with LIM domain kinase 2 (Homo sapiens) (UniProt P53671). In words: Selectivity interaction (KinomeScan (DiscoverX)) EUB0000655a LIMK2. The note with it: at 10 µM.
In assay [8] the target is Glutamate receptor ionotropic, NMDA 2B (Homo sapiens) (UniProt Q13224). Briefly: Selectivity interaction (Panel of kinases, GPCRs, ion channels and transporters (enzymatic assay)) EUB0000223bCl GRIN2B.
For another assay, the target named is Focal adhesion kinase 1 (Homo sapiens, UniProt Q05397). Briefly: Selectivity interaction (KinomeScan (DiscoverX)) EUB0000045b PTK2.
In assay [9] the target is Histone-lysine N-methyltransferase 2C (Homo sapiens) (UniProt Q8NEZ4). The note with it: at 1 µM.
For assay [10], the target named is Tyrosine-protein kinase HCK (Homo sapiens) (UniProt P08631). In words: Selectivity interaction (SelectScreen profiling (Invitrogen)) EUB0000607a HCK. Conditions: at 2 µM.
Assay [11] addresses NT-3 growth factor receptor (Homo sapiens, UniProt Q16288). Briefly: Selectivity interaction (KinomeScan (DiscoverX)) EUB0000607a NTRK3. The note with it: at 10 µM.
For assay [12], the target named is T2, Serine/threonine-protein kinase Nek3 (Homo sapiens) (UniProt P51956).
T2 sequence (whole entry): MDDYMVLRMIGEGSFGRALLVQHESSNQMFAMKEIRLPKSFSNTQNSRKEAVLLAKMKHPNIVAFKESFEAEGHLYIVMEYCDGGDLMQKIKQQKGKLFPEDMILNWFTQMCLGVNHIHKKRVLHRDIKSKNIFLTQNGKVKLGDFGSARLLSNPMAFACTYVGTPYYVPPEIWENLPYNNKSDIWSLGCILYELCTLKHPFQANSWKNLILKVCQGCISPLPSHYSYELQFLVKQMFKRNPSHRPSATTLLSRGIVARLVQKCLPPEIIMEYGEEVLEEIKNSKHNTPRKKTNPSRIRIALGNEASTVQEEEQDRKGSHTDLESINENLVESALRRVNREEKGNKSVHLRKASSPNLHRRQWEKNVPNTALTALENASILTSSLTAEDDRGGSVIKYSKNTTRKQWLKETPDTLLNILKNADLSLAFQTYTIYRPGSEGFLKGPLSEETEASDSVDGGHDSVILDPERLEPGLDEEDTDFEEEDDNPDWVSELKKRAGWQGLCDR
In words: Selectivity interaction (ActivX KiNativ screen (kinase selectivity in THP-1 cell lysates)) EUB0000639a NEK3. Type of assay: subcellular. Conditions: lysate.

The target in assay [13] is Cyclin-dependent kinase 5/CDK5 activator 1 (Homo sapiens) (UniProt Q00535+Q15078). In words: Selectivity interaction (Kinase panel (Invitrogen)) EUB0000639a CDK5. Conditions: at 200 nM. Type of assay: protein-complex assay.
The next assay addresses CREB-binding protein (Homo sapiens, UniProt Q92793). Briefly: Selectivity interaction (Human bromodomain panel (DSF assay)) EUB0000233b CREBBP. A general note: DSF heats the sample and reads unfolding from a dye or from intrinsic fluorescence.

Focal adhesion kinase 1, sequence (Q05397 2-1052 limits assumed): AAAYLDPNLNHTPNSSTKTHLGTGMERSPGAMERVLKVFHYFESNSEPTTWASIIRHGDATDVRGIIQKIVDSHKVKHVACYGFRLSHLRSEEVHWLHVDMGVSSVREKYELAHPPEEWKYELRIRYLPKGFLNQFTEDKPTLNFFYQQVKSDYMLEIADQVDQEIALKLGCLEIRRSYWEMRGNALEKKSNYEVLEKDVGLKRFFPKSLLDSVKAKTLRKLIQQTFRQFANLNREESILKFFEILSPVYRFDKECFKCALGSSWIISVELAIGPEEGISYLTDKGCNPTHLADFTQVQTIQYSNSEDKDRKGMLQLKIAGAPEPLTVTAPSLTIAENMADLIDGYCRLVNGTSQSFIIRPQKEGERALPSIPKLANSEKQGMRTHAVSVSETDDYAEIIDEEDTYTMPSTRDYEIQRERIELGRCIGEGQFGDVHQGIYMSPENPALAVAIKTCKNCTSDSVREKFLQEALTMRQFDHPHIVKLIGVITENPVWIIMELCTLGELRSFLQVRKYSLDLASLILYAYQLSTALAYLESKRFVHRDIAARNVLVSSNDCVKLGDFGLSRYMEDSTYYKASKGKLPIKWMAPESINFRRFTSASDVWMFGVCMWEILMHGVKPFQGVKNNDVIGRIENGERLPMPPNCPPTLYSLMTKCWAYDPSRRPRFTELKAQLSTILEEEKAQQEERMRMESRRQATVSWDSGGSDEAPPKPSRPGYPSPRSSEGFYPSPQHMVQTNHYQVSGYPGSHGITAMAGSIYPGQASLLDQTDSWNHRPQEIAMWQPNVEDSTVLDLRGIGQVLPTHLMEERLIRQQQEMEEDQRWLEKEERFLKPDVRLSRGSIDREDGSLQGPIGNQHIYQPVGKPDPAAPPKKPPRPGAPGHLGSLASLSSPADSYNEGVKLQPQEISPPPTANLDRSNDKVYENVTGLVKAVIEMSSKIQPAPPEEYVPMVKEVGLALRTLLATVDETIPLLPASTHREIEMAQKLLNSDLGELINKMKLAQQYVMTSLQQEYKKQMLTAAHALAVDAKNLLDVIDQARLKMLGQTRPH
Tyrosine-protein kinase receptor UFO (Homo sapiens), sequence (P30530 whole entry): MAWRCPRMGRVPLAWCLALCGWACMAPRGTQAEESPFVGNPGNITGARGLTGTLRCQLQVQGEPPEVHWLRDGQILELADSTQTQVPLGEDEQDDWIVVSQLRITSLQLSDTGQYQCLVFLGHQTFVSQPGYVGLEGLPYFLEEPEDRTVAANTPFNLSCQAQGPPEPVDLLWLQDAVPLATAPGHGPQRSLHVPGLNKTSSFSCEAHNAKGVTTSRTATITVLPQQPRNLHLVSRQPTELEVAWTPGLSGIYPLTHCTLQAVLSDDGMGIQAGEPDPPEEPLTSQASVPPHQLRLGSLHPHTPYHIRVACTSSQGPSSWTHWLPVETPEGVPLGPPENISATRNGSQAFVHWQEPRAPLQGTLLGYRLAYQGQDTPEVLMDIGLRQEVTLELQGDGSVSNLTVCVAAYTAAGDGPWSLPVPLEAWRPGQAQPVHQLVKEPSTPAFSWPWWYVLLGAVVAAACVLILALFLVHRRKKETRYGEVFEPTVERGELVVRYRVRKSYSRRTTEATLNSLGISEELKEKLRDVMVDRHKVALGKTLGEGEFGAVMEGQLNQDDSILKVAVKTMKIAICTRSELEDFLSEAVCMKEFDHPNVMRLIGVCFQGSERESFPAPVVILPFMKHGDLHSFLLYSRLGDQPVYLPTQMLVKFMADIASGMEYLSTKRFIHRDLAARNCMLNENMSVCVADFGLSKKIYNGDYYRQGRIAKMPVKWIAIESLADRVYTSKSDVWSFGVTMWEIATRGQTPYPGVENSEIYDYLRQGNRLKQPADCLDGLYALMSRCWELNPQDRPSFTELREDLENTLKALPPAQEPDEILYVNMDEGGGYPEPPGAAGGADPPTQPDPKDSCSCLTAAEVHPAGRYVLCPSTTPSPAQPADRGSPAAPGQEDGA
Tyrosine-protein kinase HCK (Homo sapiens), sequence (P08631 2-526 limits assumed): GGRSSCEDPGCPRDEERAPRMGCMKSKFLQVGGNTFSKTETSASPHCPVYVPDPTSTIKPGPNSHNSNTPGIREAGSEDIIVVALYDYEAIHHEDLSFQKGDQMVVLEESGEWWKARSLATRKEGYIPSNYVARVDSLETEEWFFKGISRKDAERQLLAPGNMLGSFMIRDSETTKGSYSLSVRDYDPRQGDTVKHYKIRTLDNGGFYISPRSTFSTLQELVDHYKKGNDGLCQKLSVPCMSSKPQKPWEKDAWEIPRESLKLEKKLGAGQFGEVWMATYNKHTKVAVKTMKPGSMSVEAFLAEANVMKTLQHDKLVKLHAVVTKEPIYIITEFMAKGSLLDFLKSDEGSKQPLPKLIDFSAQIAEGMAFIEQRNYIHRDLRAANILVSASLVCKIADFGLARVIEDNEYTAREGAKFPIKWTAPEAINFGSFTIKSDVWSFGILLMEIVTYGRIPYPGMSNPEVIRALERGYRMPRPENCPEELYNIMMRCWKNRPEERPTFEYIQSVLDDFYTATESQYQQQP
CREB-binding protein, sequence (Q92793 2-2442 limits assumed): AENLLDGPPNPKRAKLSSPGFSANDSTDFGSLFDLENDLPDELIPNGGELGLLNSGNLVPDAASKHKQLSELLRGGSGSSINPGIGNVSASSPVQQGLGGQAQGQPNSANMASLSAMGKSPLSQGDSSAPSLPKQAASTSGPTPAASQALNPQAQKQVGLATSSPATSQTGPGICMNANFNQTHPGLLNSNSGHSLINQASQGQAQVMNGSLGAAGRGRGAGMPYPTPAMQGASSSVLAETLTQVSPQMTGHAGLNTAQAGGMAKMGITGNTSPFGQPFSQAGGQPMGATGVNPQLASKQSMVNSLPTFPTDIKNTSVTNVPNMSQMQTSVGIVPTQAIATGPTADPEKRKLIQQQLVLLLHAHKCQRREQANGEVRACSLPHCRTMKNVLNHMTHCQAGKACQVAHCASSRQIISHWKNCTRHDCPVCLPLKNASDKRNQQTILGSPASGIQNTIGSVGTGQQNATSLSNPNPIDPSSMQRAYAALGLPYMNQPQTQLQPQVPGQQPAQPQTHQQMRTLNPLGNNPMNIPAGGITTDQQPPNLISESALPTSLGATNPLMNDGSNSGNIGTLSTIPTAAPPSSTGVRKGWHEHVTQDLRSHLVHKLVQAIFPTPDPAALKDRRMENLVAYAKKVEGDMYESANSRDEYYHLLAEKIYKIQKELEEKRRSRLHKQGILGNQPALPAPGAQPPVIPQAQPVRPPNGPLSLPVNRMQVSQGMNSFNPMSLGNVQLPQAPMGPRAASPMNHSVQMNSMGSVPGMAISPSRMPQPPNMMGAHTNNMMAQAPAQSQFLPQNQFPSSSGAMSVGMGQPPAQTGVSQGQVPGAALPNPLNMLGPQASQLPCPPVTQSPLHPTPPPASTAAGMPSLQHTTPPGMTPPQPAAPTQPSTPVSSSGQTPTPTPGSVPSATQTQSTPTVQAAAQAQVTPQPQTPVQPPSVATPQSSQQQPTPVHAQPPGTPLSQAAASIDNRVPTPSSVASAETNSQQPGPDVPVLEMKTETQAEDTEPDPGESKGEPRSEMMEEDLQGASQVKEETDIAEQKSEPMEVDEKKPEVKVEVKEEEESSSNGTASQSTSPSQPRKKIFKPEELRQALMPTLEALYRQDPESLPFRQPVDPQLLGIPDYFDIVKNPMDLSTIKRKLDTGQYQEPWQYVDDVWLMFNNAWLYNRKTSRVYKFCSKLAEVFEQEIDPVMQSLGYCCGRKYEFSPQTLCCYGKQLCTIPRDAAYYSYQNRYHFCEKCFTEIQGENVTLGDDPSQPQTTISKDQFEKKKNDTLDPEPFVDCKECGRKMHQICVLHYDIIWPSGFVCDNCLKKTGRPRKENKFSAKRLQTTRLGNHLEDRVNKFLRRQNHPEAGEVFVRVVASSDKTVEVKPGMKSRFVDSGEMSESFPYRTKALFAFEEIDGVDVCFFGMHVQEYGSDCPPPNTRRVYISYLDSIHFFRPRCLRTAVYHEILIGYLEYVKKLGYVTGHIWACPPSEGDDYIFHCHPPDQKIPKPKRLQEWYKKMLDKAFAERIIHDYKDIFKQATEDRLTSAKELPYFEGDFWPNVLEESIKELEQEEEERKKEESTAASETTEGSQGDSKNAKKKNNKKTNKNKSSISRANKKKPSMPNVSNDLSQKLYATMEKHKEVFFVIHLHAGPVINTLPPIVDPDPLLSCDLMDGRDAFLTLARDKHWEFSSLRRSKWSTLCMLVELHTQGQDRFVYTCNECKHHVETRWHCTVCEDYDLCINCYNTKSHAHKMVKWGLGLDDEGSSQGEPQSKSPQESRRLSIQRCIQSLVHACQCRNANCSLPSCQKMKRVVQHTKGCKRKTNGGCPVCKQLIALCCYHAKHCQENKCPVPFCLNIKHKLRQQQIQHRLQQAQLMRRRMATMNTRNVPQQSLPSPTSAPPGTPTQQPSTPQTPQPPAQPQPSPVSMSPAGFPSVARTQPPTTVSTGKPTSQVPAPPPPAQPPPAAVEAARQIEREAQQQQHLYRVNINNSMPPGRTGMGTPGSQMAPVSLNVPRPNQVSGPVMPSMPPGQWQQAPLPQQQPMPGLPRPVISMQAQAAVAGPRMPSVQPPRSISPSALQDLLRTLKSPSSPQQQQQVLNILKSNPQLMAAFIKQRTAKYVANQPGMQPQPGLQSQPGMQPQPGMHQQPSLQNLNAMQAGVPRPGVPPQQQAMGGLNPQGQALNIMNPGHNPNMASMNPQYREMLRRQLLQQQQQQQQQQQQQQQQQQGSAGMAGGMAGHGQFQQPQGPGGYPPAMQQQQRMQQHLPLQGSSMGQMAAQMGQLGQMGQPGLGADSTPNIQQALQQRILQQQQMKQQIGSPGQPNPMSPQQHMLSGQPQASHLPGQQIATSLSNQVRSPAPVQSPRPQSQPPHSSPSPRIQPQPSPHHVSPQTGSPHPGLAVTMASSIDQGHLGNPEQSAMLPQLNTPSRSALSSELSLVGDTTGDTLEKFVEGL

On to `C=CC(=O)Nc1cccc(C(=O)Nc2ccc(Nc3cc(-c4[nH]c(SC)nc4C)ccn3)cc2)c1`, for which the % of control in assay [1] (at 1 µM) was found to be 99%; in [1] (at 5 µM), 76%; in assay [2], 101%.

Take `Cc1cc([C@@H](C)Nc2ccccc2C(=O)O)c2nc(N3CCOCC3)cc(=O)n2c1` [AZD-6482]: the % of control in assay [3] came out at 89%.

`COc1cc(Nc2nc(C)cc(-c3cnn4nc(OC)ccc34)n2)cc(C(F)(F)F)c1`: the % of control in assay [4] turned out to be 100%; in assay [5] it was 89%.

Consider `CN(C)CCOc1ccc(-c2nc(-c3ccncc3)c(-c3ccc4c(c3)CC/C4=N\O)[nH]2)cc1`, for which the % of control in assay [6] turned out to be 87%; in assay [7], 79%.

In the case of `COc1cc(C(=O)N2CC[C@@H](O)[C@@H](N)C2)cc2nc(-c3cc4ccccc4n3CC3CC3)n(C)c12`, the pXC50 in assay [8] was 4.8 M.

Regarding `C=CC(=O)Nc1cc(-n2c(=O)ccc3cnc4ccc(-c5ccc(NS(C)(=O)=O)cc5)cc4c32)ccc1C`, the % of control on Focal adhesion kinase 1 (at 1 µM) stood at 96%; on Focal adhesion kinase 1 (at 10 µM), 100%.

In [9], `CNCCN1CCC(c2cc(CN(C)C(=O)c3cccc(Oc4ccccc4)c3)ccn2)CC1` gave a % activity of over 90%.

With `CNC(=O)Nc1ccc(-c2nc(N3CC4CCC(C3)O4)c3cnn(C4CCC5(CC4)OCCO5)c3n2)cc1`, the % of inhibition in assay [10] came to 5%. The same compound returned a % of control in assay [11] of 93%.

In the case of `CC[C@@H]1[C@H](F)C(=O)N[C@@H]1COc1nccc2cc(C(N)=O)c(OC)cc12` [ZIMLOVISERTIB], the % of inhibition was -5.8% in [12] (at 0.01 µM); -2.4% in assay [12] (at 0.04 µM); 6.9% in [12] (at 0.2 µM); -1.1% in [12] (at 1 µM); -11.5% in [12] (at 5 µM); 4.16% in [13].

`CN(C)CCCOc1ccc(-c2cc(NCCCn3cccn3)nc(S(C)(=O)=O)n2)cc1`: at CREB-binding protein, the dTM was under 2 K.
